The text below walks through data of patent US12404250B2, “PARP inhibitors for treating cancer and asthma” (Oregon Health & Science University, priority 2018, dated 2025).

The target of one assay is T1, PARP5 bcat (Homo sapiens, UniProt Q9H2K2).
T1 construct: bcat
Nature of the assay: In vitro IC50, PARP5bcat. The settings on record: SEM from a minimum of three dose-response experiments. The format is biochemical.

For the next assay, the target named is T2, PARP7 (Homo sapiens, UniProt Q7Z3E1).
T2 sequence (Q7Z3E1 1-657): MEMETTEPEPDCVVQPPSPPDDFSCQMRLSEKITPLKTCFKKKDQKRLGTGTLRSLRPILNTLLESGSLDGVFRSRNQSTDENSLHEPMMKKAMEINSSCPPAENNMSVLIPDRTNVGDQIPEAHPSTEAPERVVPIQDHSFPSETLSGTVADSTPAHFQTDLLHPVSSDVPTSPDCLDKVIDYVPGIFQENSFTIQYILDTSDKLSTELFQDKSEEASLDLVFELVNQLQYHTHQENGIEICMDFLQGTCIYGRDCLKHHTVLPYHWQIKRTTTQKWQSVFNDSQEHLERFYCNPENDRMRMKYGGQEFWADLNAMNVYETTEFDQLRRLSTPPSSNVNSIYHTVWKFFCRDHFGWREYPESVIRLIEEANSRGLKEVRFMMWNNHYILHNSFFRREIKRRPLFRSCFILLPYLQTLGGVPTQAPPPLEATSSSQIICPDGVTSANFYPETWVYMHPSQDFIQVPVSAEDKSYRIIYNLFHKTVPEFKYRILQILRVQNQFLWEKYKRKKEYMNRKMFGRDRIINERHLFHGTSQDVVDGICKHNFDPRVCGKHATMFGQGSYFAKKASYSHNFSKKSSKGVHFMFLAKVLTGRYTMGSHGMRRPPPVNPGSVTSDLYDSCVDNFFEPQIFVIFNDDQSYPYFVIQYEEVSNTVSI
The assay is described as follows: In vitro IC50, PARP7. The format is biochemical. The settings on record: SEM from a minimum of three dose-response experiments.

Another assay has as its target T3, PARP11 (Homo sapiens, UniProt Q9NR21).
T3 sequence (Q9NR21 1-338): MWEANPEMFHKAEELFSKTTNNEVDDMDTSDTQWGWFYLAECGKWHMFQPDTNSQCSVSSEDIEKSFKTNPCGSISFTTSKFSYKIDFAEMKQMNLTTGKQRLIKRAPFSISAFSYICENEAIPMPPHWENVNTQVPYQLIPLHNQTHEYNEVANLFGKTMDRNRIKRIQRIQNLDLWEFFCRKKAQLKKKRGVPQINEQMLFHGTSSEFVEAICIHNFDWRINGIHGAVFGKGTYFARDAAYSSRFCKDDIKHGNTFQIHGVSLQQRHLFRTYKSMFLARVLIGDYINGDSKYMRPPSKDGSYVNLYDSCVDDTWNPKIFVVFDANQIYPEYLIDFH
Nature of the assay: In vitro IC50, PARP11 (plate assay, MARylation of SRPK2 and NXF1). The format is biochemical. The settings on record: SEM from a minimum of three dose-response experiments. The text has this: Curves generated using Prism 7 (Graph Pad); error bars indicate ±SEM from at least two replicates.

The target of the next assay is T4, PARP10 (Homo sapiens, UniProt Q53GL7).
T4 sequence (Q53GL7 1-1025): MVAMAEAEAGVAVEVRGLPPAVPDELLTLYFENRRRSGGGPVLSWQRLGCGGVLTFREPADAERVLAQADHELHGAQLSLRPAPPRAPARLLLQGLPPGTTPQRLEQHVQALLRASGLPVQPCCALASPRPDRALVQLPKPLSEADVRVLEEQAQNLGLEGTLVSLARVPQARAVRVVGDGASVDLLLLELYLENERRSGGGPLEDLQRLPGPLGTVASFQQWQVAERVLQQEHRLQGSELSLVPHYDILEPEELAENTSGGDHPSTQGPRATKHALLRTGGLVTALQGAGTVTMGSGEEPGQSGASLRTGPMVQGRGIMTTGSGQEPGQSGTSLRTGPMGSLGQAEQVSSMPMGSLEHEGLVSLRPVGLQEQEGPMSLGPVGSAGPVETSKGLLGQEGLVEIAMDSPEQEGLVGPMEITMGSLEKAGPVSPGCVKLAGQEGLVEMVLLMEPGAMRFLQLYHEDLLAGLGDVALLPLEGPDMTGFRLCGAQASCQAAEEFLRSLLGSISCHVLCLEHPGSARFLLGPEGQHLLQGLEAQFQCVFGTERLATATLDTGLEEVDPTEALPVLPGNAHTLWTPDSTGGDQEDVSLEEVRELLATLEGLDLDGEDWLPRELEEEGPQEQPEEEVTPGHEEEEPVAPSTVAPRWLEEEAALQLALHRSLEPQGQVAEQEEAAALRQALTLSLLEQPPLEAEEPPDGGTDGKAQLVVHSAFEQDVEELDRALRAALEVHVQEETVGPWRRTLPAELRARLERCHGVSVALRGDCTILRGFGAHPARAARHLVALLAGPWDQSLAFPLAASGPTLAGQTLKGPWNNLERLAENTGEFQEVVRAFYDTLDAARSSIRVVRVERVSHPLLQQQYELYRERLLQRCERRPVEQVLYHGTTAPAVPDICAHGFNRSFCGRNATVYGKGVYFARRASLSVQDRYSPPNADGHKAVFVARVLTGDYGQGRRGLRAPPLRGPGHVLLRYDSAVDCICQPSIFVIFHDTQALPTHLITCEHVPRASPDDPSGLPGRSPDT
The assay is described as follows: GFP-PARP10 auto-MARylation in HEK 293T cells (Western blot). The following applies: for Inhibition of PARP10 auto-MARylation in cells at 3 μM: HEK 293T cells transfected with GFP-PARP10, 3 μM for 3 h. (In general: A western blot detects proteins with antibodies after separation by electrophoresis.)

Another assay concerns the target PARP 2 (Homo sapiens, UniProt Q9UGN5). The assay is described as follows: In vitro IC50, PARP2. The format is biochemical. The settings on record: SEM from a minimum of three dose-response experiments.
A further assay addresses T5, PARP16 (Homo sapiens, UniProt Q8N5Y8).
T5 construct: expressed in transfected cells; host or cells: HEK 293T
T5 sequence (Q8N5Y8 1-322): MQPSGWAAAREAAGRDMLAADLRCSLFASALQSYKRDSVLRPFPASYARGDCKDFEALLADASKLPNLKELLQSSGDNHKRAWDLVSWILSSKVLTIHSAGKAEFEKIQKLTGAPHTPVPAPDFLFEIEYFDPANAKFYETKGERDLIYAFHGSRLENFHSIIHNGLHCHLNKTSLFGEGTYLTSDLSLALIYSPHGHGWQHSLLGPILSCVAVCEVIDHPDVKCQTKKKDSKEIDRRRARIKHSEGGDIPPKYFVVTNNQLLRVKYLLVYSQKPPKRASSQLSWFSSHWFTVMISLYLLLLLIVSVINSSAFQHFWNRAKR
Nature of the assay: In vitro IC50, immunoprecipitated GFP-PARP16 auto-MARylation. The format is biochemical.

Usually IC50 stands for the concentration that gives 50% inhibition. Low values mean greater potency in that assay, high ones weaker potency in that assay.

T1 sequence (Q9H2K2 959-1164): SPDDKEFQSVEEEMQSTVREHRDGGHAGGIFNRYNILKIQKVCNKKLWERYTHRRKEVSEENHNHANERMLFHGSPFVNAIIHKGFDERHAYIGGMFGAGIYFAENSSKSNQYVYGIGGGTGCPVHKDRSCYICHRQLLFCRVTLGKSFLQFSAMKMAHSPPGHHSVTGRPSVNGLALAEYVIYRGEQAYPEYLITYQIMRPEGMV
Sequence of PARP 2 (Q9UGN5 whole entry): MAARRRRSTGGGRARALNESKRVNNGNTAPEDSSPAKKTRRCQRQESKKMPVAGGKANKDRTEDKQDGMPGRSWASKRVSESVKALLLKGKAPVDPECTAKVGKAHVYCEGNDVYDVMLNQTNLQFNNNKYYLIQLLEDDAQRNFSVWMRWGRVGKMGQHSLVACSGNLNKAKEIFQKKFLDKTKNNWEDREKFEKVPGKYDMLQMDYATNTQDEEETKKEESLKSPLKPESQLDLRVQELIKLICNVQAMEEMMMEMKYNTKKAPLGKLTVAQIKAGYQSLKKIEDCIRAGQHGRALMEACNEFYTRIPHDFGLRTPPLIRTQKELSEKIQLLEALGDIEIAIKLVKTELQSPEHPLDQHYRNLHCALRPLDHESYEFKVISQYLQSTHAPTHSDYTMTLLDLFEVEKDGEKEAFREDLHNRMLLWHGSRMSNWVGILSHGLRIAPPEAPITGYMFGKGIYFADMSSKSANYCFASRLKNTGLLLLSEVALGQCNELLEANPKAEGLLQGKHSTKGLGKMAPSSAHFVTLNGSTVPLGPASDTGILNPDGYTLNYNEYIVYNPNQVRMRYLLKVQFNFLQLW
Protocol for PARP16: Auto-MARylation was analyzed by Western blot with an ADP-ribose (ADPr) binding reagent (uncropped blots shown below).

For the compound `CC#Cc1ccc2c(=O)[nH]c(CSc3ccc(C(=O)O)cc3)nc2c1C` [ITK6, 4-(((8-methyl-4-oxo-7-(prop-1-yn-1-yl)-3,4-dihydroquinazolin-2-yl)methyl)thio) benzoic acid], the IC50 at PARP5 bcat is more than 30000 nM; at PARP7, 24600 ± 500 nM; against PARP11, 99 ± 16 nM. In addition, the “Inhibition of PARP10 auto-MARylation in cells at 3 μM” value on PARP10 is “inhibits PARP10 auto-MARylation in cells”. At PARP10 (HEK 293T cells transfected with GFP-PARP10, increasing concentrations for 90 min), the “Inhibition of PARP10 auto-MARylation in cells, dose response” value is “inhibits PARP10 auto-MARylation in cells in a dose dependent manner”.

On to `CC#Cc1ccc2c(=O)[nH]c(CSc3ncccn3)nc2c1C` [ITK7, 8-methyl-7-(prop-1-yn-1-yl)-2-((pyrimidin-2-ylthio)methyl)quinazolin-4(3H)-one], for which the IC50 at PARP5 bcat is more than 30000 nM; against PARP7 it was 2460 ± 500 nM; at PARP 2, more than 30000 nM; against PARP11, 14 ± 3 nM; against PARP16 it was more than 3000 nM. At PARP10, the “Inhibition of PARP10 auto-MARylation in cells at 3 μM” value was “does not inhibit PARP10”.
